Measurements from publication PMC8746705, “Comparison of Experimental Strategies to Study L-Type Amino Acid Transporter 1 (LAT1) Utilization by Ligands” (Molecules, 2021).

Legend:
LAT1 [1] = target: T1, LAT1 (Mus musculus, UniProt Q9Z127); test: Cis-inhibition of radiolabelled LAT1-probe substrate uptake into BV2 cells; type: cell-based; conditions: for IC50: 5 min, mean ± SD; for Inhibition of LAT1-probe substrate uptake / LAT1 affinity: over all probe substrates
In short: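 Mouse BV2 cells preincubated 10 min at 37 °C in choline-based HBSS pH 7.4, then 5 min uptake of [14C]-L-leucine (0.2 µCi/mL) or [3H]-methionine, -tryptophan or -kynurenine (2 µCi/mL) with 0.1–1000 μM compound. Cell radioactivity counted by liquid scintillation after lysis. IC50 by nonlinear regression.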

LAT1 [2] = target: T1, LAT1; test: Inhibition type of [14C]-L-Leu uptake (Hanes-Woolf plots) in BV2 cells; type: cell-based; conditions: for Vmax of [14C]-L-Leu uptake: 0.010–0.20 µM [14C]-L-Leu in the presence of the compound at its IC50, mean ± SD, n = 3–4; for Vmax of [14C]-L-Leu uptake / Inhibition Type: BV2; for IC50: Table 2, compound concentration used in the inhibition type study, corresponding to IC50 of [14C]-L-Leu uptake; for Inhibition Type: of [14C]-L-Leu uptake, concluded from Km and Vmax
In short: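 BV2 cells preincubated 10 min at 37 °C in Na+-free choline HBSS (pH 7.4), then exposed to 0.010–0.20 μM [14C]-L-leucine plus compound at IC50-guided concentration; uptake counted by liquid scintillation. Km and Vmax derived by linear regression of Hanes-Woolf plots ([S]/v vs substrate).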

Transport Type 2 = test: Concentration-dependent cellular uptake into BV2 cells, Eadie–Hofstee analysis, Transport Type 2; type: cell-based, mouse; conditions: 1–200 µM, 30 min, mean ± SD, n = 3
Protocol: For the concentration-dependent cellular uptake experiments, the BV2 cells on 24-well plates were incubated with studied compounds (1–200 μM) in pre-warmed HBSS buffer (250 μL) at 37 °C for 30 min. The experiment was then carried out as described for the time-dependent uptake above and the concentration of studied compounds in the cell lysate was analyzed by the LC-MS/MS methods described above and the results were normalized to the total protein concentration. The distinct transport mechanisms were separated from the Michaelis-Menten kinetics by using Eadie–Hofstee plot.
The studied compounds (1–15) were analyzed by using Agilent 1200 Series Rapid Resolution LC System together with an Agilent 6410 Triple Quadrupole Mass Spectrometer equipped with an electrospray ionization source (Agilent Technologies, Santa Clara, CA, USA). The chromatographic separations of analytes were achieved by using a reversed-phase Zobrax SB-C18 column (50 mm × 2.1 mm, 1.8 μm; Agilent Technologies, Santa Clara, CA, USA) by eluting the samples with 0.1% formic acid in water (A) and 0.1% formic in ACN (B). Labetalol and diclofenac were used as internal standards (ISTD) for the prodrugs and parent drugs, respectively. The transitions used for the quantification at the positive ion mode and chromatographic conditions of each compound and their parent drugs are listed in Table S1. The methods of compounds 1–11 have been reported earlier, while the methods of compounds 12–15 are reported herein for the first time.

LAT1 [3] = target: T1, LAT1; test: Cellular uptake of compounds in the presence of LAT1-inhibitor (KMH-233); type: cell-based; conditions: 100 µM compound, 100 µM KMH-233, 30 min, BV2
In short: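 Cells were pre-exposed 10 min to 100 µM KMH-233, then incubated 30 min in HBSS with 100 µM compound plus inhibitor. Intracellular compound was quantified by LC-MS against a spiked standard curve and normalised to protein.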

[4] = test system: immortalized mouse microglia (BV2 cells); test: Cellular viability (resazurin / Alamar blue); type: cell-based; conditions: 72 h
Protocol: Immortalized microglia (BV2 cells) were seeded at the density of 10 × 10^3 cells/well onto collagen-coated 96-well plates. The cells were used for the proliferation experiments one day after seeding. The studied compounds (50 and 100 µM) were added into the growth medium and incubated for 3 days (the medium was replaced with a fresh one with studied compounds after daily measurements). Each day the cell viability was determined by the resazurin cell proliferation kit (MilliporeSigma, St. Louis, MO, USA), which is directly proportional to aerobic respiration and cellular metabolism of cells. The samples were measured fluorometrically by monitoring the increase in fluorescence at λex 560 nm and λem 590 nm with the Envision plate reader (EnVision, Perkin Elmer, Inc., Waltham, MA, USA). The cell viability was also followed by visualizing the wells with microscopy. The ability of compounds to inhibit the viability of the cells was expressed as percentages (%) compared to the untreated controls.

[5] = probe [3H]-L-Kynu, n = 3–4, read-out: IC50 of [3H]-L-Kynu uptake
[6] = probe [3H]-L-Met, n = 3–4, read-out: IC50 of [3H]-L-Met uptake
[7] = probe [3H]-L-Trp, n = 3–4, read-out: IC50 of [3H]-L-Trp uptake
[8] = probe [14C]-L-Leu, n = 3–4, read-out: IC50 of [14C]-L-Leu uptake
[9] = higher concentrations (>100 µM)

T1 sequence (Q9Z127 whole entry): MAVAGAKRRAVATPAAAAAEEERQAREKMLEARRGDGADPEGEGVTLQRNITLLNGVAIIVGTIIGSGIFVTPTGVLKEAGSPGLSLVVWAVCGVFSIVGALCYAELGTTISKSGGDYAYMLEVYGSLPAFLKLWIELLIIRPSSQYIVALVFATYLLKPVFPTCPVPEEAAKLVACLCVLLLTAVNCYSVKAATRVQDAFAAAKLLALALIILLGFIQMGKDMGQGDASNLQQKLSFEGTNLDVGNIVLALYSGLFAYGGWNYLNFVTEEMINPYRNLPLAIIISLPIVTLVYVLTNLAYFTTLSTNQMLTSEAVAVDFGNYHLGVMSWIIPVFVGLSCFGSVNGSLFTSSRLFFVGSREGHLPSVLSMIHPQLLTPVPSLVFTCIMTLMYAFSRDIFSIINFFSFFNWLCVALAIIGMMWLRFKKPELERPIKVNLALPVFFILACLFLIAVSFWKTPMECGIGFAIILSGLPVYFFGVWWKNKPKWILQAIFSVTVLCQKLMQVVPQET
T1 sequence (P10852 whole entry partner): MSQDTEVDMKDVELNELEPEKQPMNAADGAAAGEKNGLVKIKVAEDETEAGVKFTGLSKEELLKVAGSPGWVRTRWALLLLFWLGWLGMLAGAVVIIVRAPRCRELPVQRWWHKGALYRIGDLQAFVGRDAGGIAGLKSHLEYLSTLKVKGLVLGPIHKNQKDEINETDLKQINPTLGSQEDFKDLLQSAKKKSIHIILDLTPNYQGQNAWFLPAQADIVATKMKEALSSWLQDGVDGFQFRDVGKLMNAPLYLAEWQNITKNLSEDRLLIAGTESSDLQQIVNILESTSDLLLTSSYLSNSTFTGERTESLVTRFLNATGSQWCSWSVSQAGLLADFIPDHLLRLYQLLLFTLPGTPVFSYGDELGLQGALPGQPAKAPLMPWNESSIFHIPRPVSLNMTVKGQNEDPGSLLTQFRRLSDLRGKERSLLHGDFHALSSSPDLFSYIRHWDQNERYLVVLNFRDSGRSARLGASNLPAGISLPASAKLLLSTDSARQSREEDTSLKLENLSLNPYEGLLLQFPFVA

| Compound | IC50 (LAT1 [1]; [5]) [µM] | IC50 (LAT1 [1]; [6]) [µM] | IC50 (LAT1 [1]; [7]) [µM] | IC50 (LAT1 [1]; [8]) [µM] | Vmax of [14C]-L-Leu uptake (LAT1 [2]) [nmol/min/mg] | IC50 (LAT1 [2]) [µM] | Inhibition Type (LAT1 [2]) | Km (Transport Type 2) [µM] | Transport Type 2 Vmax (Transport Type 2) [pmol/mg/min] | Cellular uptake in the presence of LAT1-inhibitor (LAT1 [3]) | Effect on cell viability [4, 9] | Inhibition of LAT1-probe substrate uptake / LAT1 affinity (LAT1 [1]) | Effect on cell viability ([4]; 50 µM) |
| --- | --- | --- | --- | --- | --- | --- | --- | --- | --- | --- | --- | --- | --- |
| NC(Cc1cccc(C(=O)Oc2ccc(-c3ccc(-c4ccc5c(c4)COC5=O)s3)cc2)c1)C(=O)O (centres unmarked) [Compound 1] | 0.7 ± 0.1 | 8.2 ± 1.7 | 6.7 ± 1.6 | 6.8 ± 1.4 | 1.792 ± 0.106 | 7 | Mixed type | 347 ± 26 | 5067 ± 327 | inhibited significantly | started to impact the cell viability | – | – |
| C[C@H](C(=O)Nc1cccc(C[C@H](N)C(=O)O)c1)c1cccc(C(=O)c2ccccc2)c1 [Compound 2] | 4.3 ± 1.3 | 3.3 ± 1.5 | 9.9 ± 1.3 | 2.8 ± 1.5 | 2.759 ± 0.066 | 3 | Mixed type | 199 ± 50 | 0.88 ± 0.16 | inhibited significantly | started to impact the cell viability | – | – |
| C[C@H](C(=O)Oc1cccc(C[C@H](N)C(=O)O)c1)c1cccc(C(=O)c2ccccc2)c1 [Compound 4] | 35.3 ± 1.2 | 26.1 ± 1.4 | 38.8 ± 3.1 | 15 ± 1.3 | 1.599 ± 0.170 | 15 | Non-competitive | 159 ± 45 | 231 ± 40 | inhibited significantly | started to impact the cell viability | – | – |
| COc1cc(C=CC(=O)NCc2cccc(CC(N)C(=O)O)c2)ccc1O (centres unmarked) [Compound 5] | 43.3 ± 1.1 | > 100 | > 100 | > 100 | 1.910 ± 0.057 | – | Un-competitive | 77 ± 13 | 0.27 ± 0.02 | only reductive trends were seen | – | not able to inhibit the LAT1-probe substrate uptake very effectively | – |
| COc1cc(/C=C/C(=O)Oc2cccc(C[C@H](N)C(=O)O)c2)ccc1O [Compound 7] | 96.8 ± 1.2 | 13.6 ± 1.8 | 19.8 ± 1.3 | 37.6 ± 1.8 | 2.780 ± 0.126 | 38 | Mixed type | 62 ± 14 | 0.21 ± 0.02 | inhibited significantly | – | – | – |
| N[C@@H](Cc1cccc(NC(=O)c2ccccc2O)c1)C(=O)O [Compound 8] | 18.1 ± 1.2 | 12 ± 1.4 | 24.5 ± 2 | – | 1.644 ± 0.073 | 19 | Un-competitive | 41 ± 5 | 185 ± 10 | inhibited significantly | – | not able to inhibit the LAT1-probe substrate uptake very effectively | – |
| C[C@H](C(=O)Nc1cccc(C[C@H](N)C(=O)O)c1)c1ccc(-c2ccccc2)c(F)c1 [Compound 9] | 4.7 ± 1.2 | 1.7 ± 1.8 | 15.9 ± 7.8 | – | 2.422 ± 0.061 | 6 | Non-competitive | – | – | inhibited significantly | – | – | minor effects on cell viability |
| C[C@H](C(=O)Oc1cccc(C[C@H](N)C(=O)O)c1)c1ccc(-c2ccccc2)c(F)c1 [Compound 12] | 3 ± 1.5 | 4.3 ± 1.7 | 6.3 ± 1.3 | – | 1.513 ± 0.218 | 4 | Mixed type | – | – | inhibited significantly | started to impact the cell viability | – | minor effects on cell viability |
| COc1ccc2cc([C@H](C)C(=O)Oc3cccc(C[C@H](N)C(=O)O)c3)ccc2c1 [Compound 15] | 3.1 ± 1.3 | 25.3 ± 1.6 | 11.1 ± 1.2 | – | 1.448 ± 0.099 | 10 | Non-competitive | – | – | inhibited significantly | started to impact the cell viability | – | minor effects on cell viability |
